Drawing on PubChem BioAssay (NCI), this text covers TGI and GI50 for 8 compounds.

Assay in all cases: NCI-60 cell line screen, 48 h
For experiment [1], the system named is OVCAR-4 ovarian.
Experiment [2] concerns HT29 colon.
The subject of experiment [3] is NCI-H226 lung.
The subject of experiment [4] is PC-3 prostate.
For experiment [5], the system named is NCI/ADR-RES ovarian.
The subject of experiment [6] is CCRF-CEM leukemia.
Experiment [7] has as its system MOLT-4 leukemia.
Experiment [8] deals with SK-MEL-28 melanoma.
Experiment [9] relates to OVCAR-3 ovarian.
Experiment [10] deals with K-562 leukemia.

Each structure is given as a SMILES string. Where “and” joins values, the source holds several entries; their conditions need not be identical. Identical values can stand only once.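 Five compound concentrations were applied to cells in 96-well plates for 48 hours; endpoints were derived by simple linear interpolation of the resulting dose-response curve. GI50: concentration for 50% inhibition of growth. TGI: concentration producing complete growth inhibition.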

Regarding `Nc1nc(N)c2nn(-c3ccc(C(=O)O)cc3)nc2n1`, the TGI in experiment [1], in [2], in experiment [3], in experiment [4], in experiment [5] and in experiment [6] was more than 100 µM throughout. For the same compound, the TGI in experiment [7], in [8], in experiment [9] and in [10] was more than 100 µM each time.

As for `CN(C)c1ccc(/C=C/C(=O)c2ccc(Nc3nc(Nc4ccc(F)cc4)nc(Nc4ccc(Cl)cc4)n3)cc2)cc1`, the GI50 is 10.7 µM in experiment [1]; 5.18 µM in experiment [2]; 15.6 µM in experiment [3]; 2.08 µM in experiment [4]; 3.56 µM in experiment [5]; 2.57 µM in [6]. Moreover, the GI50 in experiment [7] is 1.55 µM; in experiment [8], 3.88 µM; in experiment [9], 5.48 µM; in experiment [10], 2.77 µM. For the same compound, the TGI was more than 100 µM in experiment [1]; 38.9 µM in [2]; more than 100 µM in experiment [3]; 5.45 µM in experiment [4]; 33.4 µM in experiment [5]; 9.44 µM in [6]. Further, the TGI in experiment [7] was 5.23 µM; in experiment [8] it was 52.7 µM; in experiment [9], 21.6 µM; in [10], more than 100 µM.

On to `CN1CCN(Cc2ccc(NC(=O)c3cncc(C#Cc4c(N)ncc5ccc(F)cc45)c3)cc2C(F)(F)F)CC1`, for which the GI50 was 0.825 µM in experiment [1]; 0.126 µM in experiment [2]; 0.4 µM in [3]; 1.23 µM in experiment [4]; 1.89 µM in [5]; 0.553 µM in experiment [6]. Besides, the GI50 in experiment [7] was 0.234 µM; in [8] it was 0.621 µM; in experiment [9], 4.07 µM; in experiment [10], 0.005 µM. Further, the TGI was 3.87 µM in experiment [1]; 0.789 µM in experiment [2]; 1.75 µM in [3]; 3.78 µM in [4]; 5.83 µM in experiment [5]; 3.73 µM in [6]. In addition, the TGI in experiment [7] worked out at 3.03 µM; in experiment [8] it was 1.37 µM; in [9], 16.5 µM; in [10], 1.07 µM.

For `C/C=C\C(C)=C/C(C)C(=O)CC(O)CC1CC(=O)NC(=O)C1` (centres undefined), the TGI in [1] was more than 100 µM; in [2] it was more than 100 µM; in [3], more than 100 µM; in [4], more than 100 µM; in experiment [5], 48.2 µM; in experiment [6], more than 100 µM. The TGI was more than 28.2 µM in experiment [7], more than 100 µM in [8], more than 100 µM in experiment [9] and more than 100 µM in experiment [10].

On to `COc1ccc(-c2nccn2-c2cc(OC)c(OC)c(OC)c2)cc1`, for which the GI50 is 15.3 µM in experiment [1]; 1.05 µM in experiment [2]; 14.6 µM in experiment [3]; 1.81 µM in [4]; 1.17 µM in [5]; 8.13 µM in experiment [6]. Besides, the GI50 in experiment [7] was 18.3 µM; in experiment [8], 20.6 µM; in [9], 1.07 µM; in [10] it was 1.5 µM. Further, the TGI in experiment [1] is more than 100 µM; in experiment [2] it was more than 46.2 µM; in [3], more than 100 µM; in [4], more than 100 µM; in experiment [5], 22.2 µM; in experiment [6] it was more than 100 µM. Further, the TGI in experiment [7], in [8] and in experiment [10] was more than 100 µM each time.

On to `CCS(=O)(=O)Nc1ccc(Oc2ccc(F)cc2F)c(-c2cn(C)c(=O)c3[nH]ccc23)c1`, for which the GI50 in [1] is 0.275 µM; in experiment [2], less than 0.01 µM; in experiment [3], 2.46 µM; in experiment [4] it was 0.0656 µM; in [5], 0.561 µM; in [6] it was 0.162 µM. Further, the GI50 in experiment [7] is 0.408 µM; in experiment [8], 1.64 µM; in [9], 0.0402 µM; in experiment [10], 0.0322 µM. For the same compound, the TGI in experiment [1] was 37 µM; in [2] it was 14.1 µM; in experiment [3] it was 20.2 µM; in experiment [4], 49.4 µM; in experiment [5], 39.4 µM; in experiment [6], more than 60 µM. Further, the TGI in experiment [7] was 15.6 µM; in experiment [8], 21 µM; in experiment [9] it was 19.6 µM; in experiment [10], more than 62.6 µM.

For `Cc1nn(-c2ccccc2)c2ncc3c(c12)C(=O)N(Cc1ccccc1)C3=O`, the GI50 is 2.18 µM in experiment [1]; more than 100 µM in [2]; 3.46 µM in experiment [3]; 10.1 µM in experiment [4]; 4.46 µM in experiment [5]; 1.99 µM in [6]. Also, the GI50 in experiment [7] is 6.77 µM; in experiment [8], more than 100 µM; in [9], 3.31 µM; in experiment [10], 3.73 µM. In addition, the TGI in experiment [1] is 5.48 µM; in experiment [2], more than 100 µM; in experiment [3] it was 13 µM; in experiment [4], more than 100 µM; in experiment [5] it was more than 100 µM; in [6] it was 16.8 µM. For the same compound, the TGI in [7] was 40.3 µM; in experiment [8], more than 100 µM; in experiment [9], 9.84 µM; in experiment [10], 41.9 µM.

Consider `CC(CCC/C=C/CCCN(C)C(=N)N)CC(C)C1OC(=O)C(C)C(O)/C=C/C(C)C(O)C(C)C(O)C(C)C(O)CCCC(O)CC2(O)OC(CC(OC(=O)CC(=O)O)CC(O)CC(O)C(C)C(O)/C=C/C=C/C1C)CC(O)C2O` (centres undefined), for which the GI50 in experiment [1] was 2.65 µM and 7.59 µg/mL; in experiment [2], 1.76 µM and 3 µg/mL; in experiment [3] it was 6.21 µM and 14.1 µg/mL; in experiment [4], 3.09 µM and 4.86 µg/mL; in experiment [5], 5.99 µM and 15.9 µg/mL; in experiment [6], 2.7 µM. Further, the GI50 was 2.78 µM and 11.1 µg/mL in [7]; 2.04 µM and 2.59 µg/mL in experiment [8]; 1.92 µM and 5.68 µg/mL in [9]; 3.13 µM and 10.4 µg/mL in [10]. For the same compound, the TGI was 6.66 µM and 18.4 µg/mL in experiment [1]; 3.41 µM and 11.7 µg/mL in experiment [2]; 24.2 µM and 26.9 µg/mL in experiment [3]; 11.5 µM and 16 µg/mL in [4]; 20.4 µM and 34.3 µg/mL in experiment [5]; 11 µM in experiment [6]. The TGI in experiment [7] was 5.88 µM and 28.4 µg/mL; in [8], 4.05 µM and 8.56 µg/mL; in experiment [9] it was 3.42 µM and 15.1 µg/mL; in [10], 7.16 µM and 75 µg/mL.
